Results reported in patent US20050233435A1, “Plasmodium axenic liver stages as a noninfectious whole organism malaria vaccine” (priority 2003, published 2005).

Tested on: P. berghei sporozoites
Experiment: Host cell-free transformation of sporozoites into EEFs (liver stages)
Format: cell-based
Settings: Plasmodium berghei; lactacystin 10 μM in the culture medium
Experimental: Transformation medium and quantification of transformation: Sporozoites were suspended in DMEM medium (BioWhittaker) containing 2 mM of L-glutamine, 4.5 g/l glucose and supplemented with 10% Fetal Bovine Serum (FBS; HyClone) and 500 U/ml penicillin/streptomycin and 1.25 μl/ml fungizon (Sigma). For the generation of Plasmodium axenic liver stages, 5×10^4 sporozoites were inoculated per well of a 8 well chamber slide (Labtek) and maintained at 37° C. in 5% CO2. Initially, slides were coated with Matrigel (Becton Dickinson) at density of 100 μg/cm^2 to improve the development. Matrigel improved attachment of the parasites to the slide, but was not essential for transformation.
To determine transformation rates for various conditions and slides, the host cell-free cultures of GFP-expressing P. berghei sporozoites were examined by fluorescence microscopy at 400× magnification using an Eclipse TE 300 fluorescence microscope (Nikon, Inc.) using a green filter (excitation wavelength 495 nm/emission wavelength 519 nm). EEFs were scored as completely transformed only when they appeared completely spherical with no sporozoite remnants visible. Each count was performed in triplicate on three independent experiments done with sporozoites isolated from different batches of infected mosquitoes.

`CC(=O)N[C@@H](CSC(=O)[C@]1([C@@H](O)C(C)C)NC(=O)[C@H](C)[C@@H]1O)C(=O)O` [lactacystin] showed an inhibition at 10 µM of ~70%.
